The record followed here is patent publication US8071317B2, “Methods for detection of hydrophobic drugs” (Siemens Healthcare Diagnostics Inc., priority 2007, dated 2011).

The test deals with anti-sirolimus antibody. In words: Sirolimus ACMIA immunoassay: metabolite cross-reactivity in whole blood. It counts as binding. The source says: Testing was done using the DIMENSION® RxL analyzer, available from Dade Behring Inc., Newark Del. The instrument was employed using ACMIA immunoassay technology. The ACMIA assay method is disclosed in U.S. Pat. Nos. 7,186,518, 5,147,529, 5,128,103, 5,158,871, 4,661,408, 5,151,348, 5,302,532, 5,422,284, 5,447,870, 5,434,051, the disclosures of which are incorporated herein in their entirety). In the embodiment of the ACMIA method used herein and discussed in more detail below, competition between sirolimus analog on chrome particles and sirolimus (SIRO) in patient samples for antibody for sirolimus conjugated to an enzyme (conjugate) was utilized to determine the amount of sirolimus in the patient samples. Conjugate that binds to the sirolimus analog on chrome particles was removed by magnetic separation. The enzymatic activity from conjugate remaining in the supernatant is measured and is directly proportional to the amount of sirolimus in the patient sample. In the ACMIA assay format employed, the enzymatic activity observed when testing a sample containing no sirolimus was indicative of the amount of enzymatic activity that was not bound to active antibody (i.e., cannot bind sirolimus on chrome particles). The enzymatic activity observed when no chrome particle is present is indicative of the total amount of enzymatic activity in the conjugate. These values can be used to estimate the percent of enzymatic activity bound to active antibody.
Monoclonal anti-sirolimus antibody (Wyeth Pharmaceuticals, Cambridge Mass.) was conjugated to β-galactosidase using a standard heterobifunctional SMCC (succinimidyl trans-4-(N-maleimidylmethyl)cyclohexane-1-carboxylate) linker according to known techniques. The antibody conjugate solution contained approximately 7.5 μg/mL anti-sirolimus antibody-β-galactosidase conjugate, 30 mg/mL protease free bovine serum albumin, 0.126 mg/mL MgCl2, 0.03 mL/mL of Ethylene glycol, 35.14 mg/mL PIPES 1.5 sodium salt, 50 mg/mL NaCl and beta-gal mutein (inactivated beta-galactosidase), pH 6.5.
Sirolimus chrome particles (immunoassay solid phase) were prepared by conjugating sirolimus-C26- or -C32-CMO conjugate to DA10-Dexal-Chromium Dioxide particles using N-hydroxysuccinimide (NHS) ester and 1-ethyl-3-(3-dimethylaminopropyl)carbodiimide (EDAC) chemistry. See, for example, U.S. Pat. No. 6,231,982, the relevant disclosure of which is incorporated herein by reference. The sirolimus chrome particles are then made into sirolimus chrome particle tablets. Each sirolimus tablet contains approximately 2 mg sirolimus chrome particle slurry, 30.4 mg trehalose dihydrate and 3.6 mg CARBOWAX® 100 μm.
The principle and operation of the ACMIA assay for sirolimus were as follows: pretreatment reagent without FKE or with FKE containing organic solvent as the selective solubility agent was added to a reaction vessel on the DIMENSION® RxL analyzer. Next, 18 μL of whole blood containing sirolimus or its metabolites was added. The whole blood was sampled from a standard cup by first mixing the blood with the ultrasonic sample probe. The mixing of whole blood sample with the pretreatment solution ensured the hemolysis of the whole blood and the displacement of the protein bound sirolimus molecules from their binding sites when the tacrolimus carbamate molecules were present. Anti-sirolimus antibody-β-galactosidase conjugate (50 μL) was added next and was allowed to react with sirolimus in the sample. The chrome particles with immobilized sirolimus-CMO-DA10-Dexal were added (50 μL) and were allowed to bind the un-bound conjugate. […] The sirolimus-bound conjugate was detected by transferring the supernatant from the reaction vessel to a photometric cuvette and measuring the enzymatic rate of the conjugate in the presence of chlorophenol red-β-D-galactopyranoside (CPRG). The rate was measured bichromatically at 577 and 700 nm. […]

Setting [1] is: PT with 15 μg/mL FKE & 15% DMSO.

11-hydroxy sirolimus: the sirolimus metabolite cross-reactivity runs as follows: under setting [1], 35%; (PT with 15 μg/mL FKE, no DMSO) 78%; (PT with Neither FKE Nor DMSO) 315%.

With “11-hydroxy sirolimus [11-hydroxy sirolimus (isomer of the above)]”, the sirolimus metabolite cross-reactivity runs as follows: under setting [1], 9%; (PT with 15 μg/mL FKE, no DMSO) 34%; (PT with Neither FKE Nor DMSO) 114%.

Consider “27,39-O-didesmethyl (or 32,41-O-didesmethyl) sirolimus [27,39 Didesmethyl sirolimus]”, for which the “% Cross-Reactivity” value reads like this: (Control: no organic solvent in pretreatment reagent, recovery as percent of parent sirolimus) 180%; (DMSO 10% in pretreatment reagent, 2.3% in reaction mixture, 15 μg/mL FK506 ester) 100%; (DMSO 15% in pretreatment reagent, 3.4% in reaction mixture, 15 μg/mL FK506 ester) 88%; (Methoxypropanol 10% in pretreatment reagent, 2.3% in reaction mixture, 15 μg/mL FK506 ester) 92%. In addition, the sirolimus metabolite cross-reactivity is 88% under setting [1]; 165% (PT with 15 μg/mL FKE, no DMSO); 569% (PT with Neither FKE Nor DMSO).

With 32-O-desmethyl sirolimus, the sirolimus metabolite cross-reactivity is −3% under setting [1]; 8% (PT with 15 μg/mL FKE, no DMSO); 34% (PT with Neither FKE Nor DMSO).

Turning to 41-O-demethyl sirolimus, the sirolimus metabolite cross-reactivity under setting [1] is 40%; the sirolimus metabolite cross-reactivity (PT with 15 μg/mL FKE, no DMSO) is listed as 39%; the sirolimus metabolite cross-reactivity (PT with Neither FKE Nor DMSO) came out at 48%.

As for `CO[C@@H]1C[C@H](C[C@@H](C)[C@@H]2CC(=O)[C@H](C)/C=C(\C)[C@@H](O)[C@@H](OC)C(=O)[C@H](C)C[C@H](C)/C=C/C=C/C=C(\C)[C@@H](O)C[C@@H]3CC[C@@H](C)[C@@](O)(O3)C(=O)C(=O)N3CCCC[C@H]3C(=O)O2)CC[C@H]1O` [7-O-demethyl sirolimus], the sirolimus metabolite cross-reactivity is listed as −3% under setting [1]; 7% (PT with 15 μg/mL FKE, no DMSO); 6% (PT with Neither FKE Nor DMSO).

Take (N-oxide)-hydroxy sirolimus: the sirolimus metabolite cross-reactivity by setting is: under setting [1], 13%; (PT with 15 μg/mL FKE, no DMSO) 49%; (PT with Neither FKE Nor DMSO) 152%.
